Results published in PubChem BioAssay (NCI).
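Method: 48-hour compound exposure of cells in 96-well plates, five concentrations, linear interpolation of endpoints. GI50 is the concentration that inhibits growth by half. Definition used: TGI = concentration required for complete inhibition of growth.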

Legend:
Experiment in all cases: growth of human tumour cells (NCI), 48 h
[1] = system: HT29 colon
[2] = system: HOP-62 NSCLC
[3] = system: MDA-MB-435
[4] = system: MOLT-4 leukemia
[5] = system: COLO 205 colon
[6] = system: SF-295 CNS
[7] = system: 786-0 renal
[8] = system: T-47D breast
[9] = system: HOP-92 NSCLC
[10] = system: SK-MEL-28 melanoma
[11] = system: HS 578T breast
[12] = system: BT-549 breast
[13] = system: PC-3 prostate
[14] = system: RPMI-8226 leukemia
[15] = system: MCF7 breast
[16] = system: SK-MEL-2 melanoma
[17] = system: NCI-H226 lung
[18] = system: SN12C renal
[19] = system: K-562 leukemia
[20] = system: KM12 colon
[21] = system: M14 melanoma
[22] = system: RXF 393 renal
[23] = system: HCT-116 colon
[24] = system: A498 renal
[25] = system: SW-620 colon
[26] = system: CAKI-1 renal
[27] = system: SF-539 CNS
[28] = system: NCI-H460 lung
[29] = system: NCI-H23 lung
[30] = system: MALME-3M melanoma
[31] = system: SNB-19 CNS
[32] = system: OVCAR-8 ovarian
[33] = system: OVCAR-4 ovarian
[34] = system: IGROV1 ovarian
[35] = system: SNB-75 CNS
[36] = system: SK-MEL-5 melanoma
[37] = system: OVCAR-5 ovarian
[38] = system: UACC-62 melanoma
[39] = system: SF-268 CNS
[40] = system: A549 NSCLC
[41] = system: U251 CNS
[42] = system: HCT-15 colon
[43] = system: HL-60(TB) leukemia
[44] = system: MDA-MB-231 breast
[45] = system: CCRF-CEM leukemia
[46] = system: LOX IMVI melanoma
[47] = system: SR leukemia
[48] = system: NCI/ADR-RES ovarian
[49] = system: HCC-2998 colon
[50] = system: ACHN renal
[51] = system: SK-OV-3 ovarian
[52] = system: DU-145 prostate
[53] = system: OVCAR-3 ovarian
[54] = system: EKVX NSCLC
[55] = system: UACC-257 melanoma
[56] = system: NCI-H522 lung
[57] = system: UO-31 renal
[58] = system: TK-10 renal

Cc1cc2nc3c4cc(Cl)ccc4n(CCN(C)C)c3nc2cc1C
GI50 [1]: 1130 nM
TGI [1]: 3.66 µM
GI50 [2]: 1530 nM
TGI [2]: 4.57 µM
GI50 [3]: 1690 nM
TGI [3]: 3.19 µM
GI50 [4]: 586 nM
TGI [4]: 3.44 µM
GI50 [5]: 1280 nM
TGI [5]: 3.24 µM
GI50 [6]: 1910 nM
TGI [6]: 3.79 µM
GI50 [7]: 1810 nM
TGI [7]: 4.22 µM
GI50 [8]: 2980 nM
TGI [8]: 16.6 µM
GI50 [9]: 498 nM
TGI [9]: 3.61 µM
GI50 [10]: 2000 nM
TGI [10]: 3.53 µM
GI50 [11]: 2350 nM
TGI [11]: 6.99 µM
GI50 [12]: 2530 nM
TGI [12]: 8.19 µM
GI50 [13]: 1650 nM
TGI [13]: 4.74 µM
GI50 [14]: 1550 nM
TGI [14]: 4.12 µM
GI50 [15]: 1060 nM
TGI [15]: 2490 nM
GI50 [16]: 2080 nM
TGI [16]: 4.45 µM
GI50 [17]: 1980 nM
TGI [17]: 4.24 µM
GI50 [18]: 1610 nM
TGI [18]: 8.45 µM
GI50 [19]: 1360 nM
TGI [19]: 4.03 µM
GI50 [20]: 1550 nM
TGI [20]: 3.17 µM
GI50 [21]: 1490 nM
TGI [21]: 2930 nM
GI50 [22]: 1590 nM
TGI [22]: 3.32 µM
GI50 [23]: 700 nM
TGI [23]: 2080 nM
GI50 [24]: 1290 nM
TGI [24]: 2630 nM
GI50 [25]: 821 nM
TGI [25]: 2250 nM
GI50 [26]: 1060 nM
TGI [26]: 2800 nM
GI50 [27]: 1550 nM
TGI [27]: 2940 nM
GI50 [28]: 1340 nM
TGI [28]: 2850 nM
GI50 [29]: 1650 nM
TGI [29]: 3.95 µM
GI50 [30]: 1720 nM
TGI [30]: 3.33 µM
GI50 [31]: 1920 nM
TGI [31]: 6.83 µM
GI50 [32]: 1400 nM
TGI [32]: 6.33 µM
GI50 [33]: 1720 nM
TGI [33]: 9.08 µM
GI50 [34]: 1350 nM
TGI [34]: 3.86 µM
GI50 [35]: 738 nM
TGI [35]: 6.24 µM
GI50 [36]: 1800 nM
TGI [36]: 3.22 µM
GI50 [37]: 2000 nM
TGI [37]: 5.2 µM
GI50 [38]: 1650 nM
TGI [38]: 3.3 µM
GI50 [39]: 1930 nM
TGI [39]: 5.29 µM
GI50 [40]: 1510 nM
TGI [40]: 4.17 µM
GI50 [41]: 1430 nM
TGI [41]: 3.14 µM
GI50 [42]: 821 nM
TGI [42]: 4.7 µM
GI50 [43]: 1930 nM
TGI [43]: 4.33 µM
GI50 [44]: 1600 nM
TGI [44]: 4.81 µM
GI50 [45]: 1.22 µM
TGI [45]: 4.63 µM
GI50 [46]: 1130 nM
TGI [46]: 2370 nM
GI50 [47]: 682 nM
TGI [47]: 2880 nM
GI50 [48]: 1070 nM
TGI [48]: 5.04 µM
GI50 [49]: 1350 nM
TGI [49]: 2740 nM
GI50 [50]: 660 nM
TGI [50]: 2010 nM
GI50 [51]: 2750 nM
TGI [51]: 10.6 µM
GI50 [52]: 2140 nM
TGI [52]: 4.62 µM
GI50 [53]: 1920 nM
TGI [53]: 4.76 µM
GI50 [54]: 2450 nM
TGI [54]: 6.77 µM
GI50 [55]: 1760 nM
TGI [55]: 3.59 µM
GI50 [56]: 1410 nM
TGI [56]: 3.27 µM
GI50 [57]: 389 nM
TGI [57]: 3.35 µM
GI50 [58]: 2510 nM
TGI [58]: 5.74 µM

COc1ccc(NC(=O)Nc2n[nH]c3ccccc23)cc1
GI50 [1]: > 100000 nM
TGI [1]: > 100 µM
GI50 [2]: > 100000 nM
TGI [2]: > 100 µM
GI50 [3]: > 100000 nM
TGI [3]: > 100 µM
GI50 [4]: > 100000 nM
TGI [4]: > 100 µM
GI50 [5]: > 100000 nM
TGI [5]: > 100 µM
GI50 [6]: > 100000 nM
TGI [6]: > 100 µM
GI50 [7]: > 100000 nM
TGI [7]: > 100 µM
GI50 [8]: > 100000 nM
TGI [8]: > 100 µM
GI50 [9]: > 100000 nM
TGI [9]: > 100 µM
GI50 [10]: > 100000 nM
TGI [10]: > 100 µM
GI50 [11]: > 100000 nM
TGI [11]: > 100 µM
GI50 [12]: > 100000 nM
TGI [12]: > 100 µM
GI50 [13]: > 100000 nM
TGI [13]: > 100 µM
GI50 [14]: > 100000 nM
TGI [14]: > 100 µM
GI50 [15]: > 100000 nM
TGI [15]: > 100000 nM
GI50 [16]: > 100000 nM
TGI [16]: > 100 µM
GI50 [17]: > 100000 nM
TGI [17]: > 100 µM
GI50 [18]: > 100000 nM
TGI [18]: > 100 µM
GI50 [19]: > 100000 nM
TGI [19]: > 100 µM
GI50 [20]: > 100000 nM
TGI [20]: > 100 µM
GI50 [21]: > 100000 nM
TGI [21]: > 100000 nM
GI50 [22]: > 100000 nM
TGI [22]: > 100 µM
GI50 [23]: > 100000 nM
TGI [23]: > 100000 nM
GI50 [24]: > 100000 nM
TGI [24]: > 100000 nM
GI50 [25]: > 100000 nM
TGI [25]: > 100000 nM
GI50 [26]: > 100000 nM
TGI [26]: > 100000 nM
GI50 [27]: > 100000 nM
TGI [27]: > 100000 nM
GI50 [28]: > 100000 nM
TGI [28]: > 100000 nM
GI50 [29]: > 100000 nM
TGI [29]: > 100 µM
GI50 [30]: > 100000 nM
TGI [30]: > 100 µM
GI50 [31]: > 100000 nM
TGI [31]: > 100 µM
GI50 [32]: > 100000 nM
TGI [32]: > 100 µM
GI50 [33]: > 100000 nM
TGI [33]: > 100 µM
GI50 [34]: > 100000 nM
TGI [34]: > 100 µM
GI50 [35]: > 100000 nM
TGI [35]: > 100 µM
GI50 [36]: > 100000 nM
TGI [36]: > 100 µM
GI50 [37]: > 100000 nM
TGI [37]: > 100 µM
GI50 [38]: > 100000 nM
TGI [38]: > 100 µM
GI50 [39]: > 100000 nM
TGI [39]: > 100 µM
GI50 [40]: > 100000 nM
TGI [40]: > 100 µM
GI50 [41]: > 100000 nM
TGI [41]: > 100 µM
GI50 [42]: > 100000 nM
TGI [42]: > 100 µM
GI50 [43]: > 100000 nM
TGI [43]: > 100 µM
GI50 [44]: > 100000 nM
TGI [44]: > 100 µM
GI50 [45]: 5.96 µM
TGI [45]: > 100 µM
GI50 [46]: > 100000 nM
TGI [46]: > 100000 nM
GI50 [47]: > 100000 nM
TGI [47]: > 100000 nM
GI50 [48]: > 100000 nM
TGI [48]: > 100 µM
GI50 [49]: > 100000 nM
TGI [49]: > 100000 nM
GI50 [50]: > 100000 nM
TGI [50]: > 100000 nM
GI50 [51]: > 100000 nM
TGI [51]: > 100 µM
GI50 [52]: > 100000 nM
TGI [52]: > 100 µM
GI50 [53]: > 100000 nM
TGI [53]: > 100 µM
GI50 [54]: > 100000 nM
TGI [54]: > 100 µM
GI50 [55]: > 100000 nM
TGI [55]: > 100 µM
GI50 [56]: > 100000 nM
TGI [56]: > 100 µM
GI50 [57]: > 100000 nM
TGI [57]: > 100 µM
GI50 [58]: > 100000 nM
TGI [58]: > 100 µM
